Laboratory results reported in US3950525A, “Relaxation of smooth muscle in a mammal” (Pfizer Inc., priority 1975, dated 1976).
Structures can show the parent of a compound that is named as a salt.

What was measured:
[1] = tested on: collagen induced platelet aggregation; assay: In Vitro Inhibition of Platelet Aggregation (collagen induced, rabbit platelet-rich plasma); type: cell-based; settings: Oryctolagus cuniculus, 10 min; for inhibition at 60 µM: 6 × 10^^-5 mol./l.; for inhibition at 6 µM: 6 × 10^^-6 mol./l.; for inhibition at 600 µM: 6 × 10^^-4 mol./l.
Description: The ability of the compounds of the present invention to inhibit platelet aggregation in vitro is measured according to the method of Born, et al., J. Physiol., 168, 178 (1963) and comprises the following procedure: Anesthetized male rabbits are bled from a carotid artery into plastic centrifuge tubes containing 0.1 volume 3% sodium citrate. Platelet-rich plasma is separated by centrifugation at 100 G for 10 minutes at 20° C. […] After 10 minutes of incubation with the platelet-rich plasma at room temperature, collagen, a protein known to cause platelet aggregation, is added (0.27 ml. collagen/4 ml. plasma) and changes in the optical density are followed with a Spectronic 20 colorimeter attached to a Houston Instrument TY Recorder. Platelet aggregation is indicated by a decrease in optical density. The relative potency of the compounds of the present invention are thus rated on their ability to inhibit (percent) collagen induced platelet aggregation.

[2] = tested on: collagen induced platelet aggregation; assay: In Vivo Inhibition of Platelet Aggregation (collagen induced aggregation in plasma of dosed dogs); parameters: species or system mongrel dogs; settings: for Inhibition to Collagen, High: high collagen (1:20 dilution); for Inhibition to Collagen, Low: low collagen (1:40-50 dilution)
Description: The capacity of the compounds of the present invention to inhibit platelet aggregation in a modified in vivo test is measured by the following procedure: Unanesthetized fasted adult mongrel dogs of either sex are dosed orally (P.O.) or intravenously (I.V.) with the particular test compound. Blood samples are taken at hourly intervals and placed in plastic centrifuge tubes containing 0.1 volume 3% sodium citrate. Platelet-rich plasma is separated by centrifugation at 100 G for 10 minutes at 20° C. and treated with a collagen suspension in saline. The effect of two different levels of collagen concentration are examined; the first is a 1:20 dilution, i.e. 1 ml. of collagen suspension per 20 ml. of platelet-rich plasma (high dose), and the second, a 1:40-50 dilution (low dose). Changes in optical density are then followed with a Spectronic 20 colorimeter attached to a Houston Instrument TY Recorder. Platelet aggregation is indicated by a decrease in optical density. […] Measurements are carried out on the hourly samples, allowing for the determination of a duration of the initial effect.

Row | SMILES | inhibition at 60 µM [1] [%] | inhibition at 6 µM [1] [%] | inhibition at 600 µM [1] [%] | other results
1 | CCN(CC)c1cc(-c2ccc(OC)cc2)ncn1 [Ar=4-CH3OC6H4; R1=C2H5; R2=C2H5; R3=H, 4-diethylamino-6-(p-methoxyphenyl)pyrimidine] | 86 | 42 | – | Inhibition to Collagen, High ([2]; 10 mg./kg. I.V.): None (none (0-15%)); Inhibition to Collagen, Low ([2]; 10 mg./kg. I.V.): None (none (0-15%)); Inhibition to Collagen, High ([2]; 40 mg./kg. P.O.): Partial (partial (15-95%)); Duration ([2]; 40 mg./kg. P.O., line with high collagen result): 1 h; Duration ([2]; 40 mg./kg. P.O., line with low collagen result): 4 h; Inhibition to Collagen, Low ([2]; 40 mg./kg. P.O.): Complete (complete (95-100%))
2 | CCN(CC)c1cc(-c2cccs2)ncn1 [Ar=2-thienyl; R1=C2H5; R2=C2H5; R3=H, 4-diethylamino-6-(2-thienyl)pyrimidine] | – | 75 | 94 | –
3 | CCN(CC(F)(F)F)c1cc(-c2ccccc2)ncn1 [Ar=C6H5; R1=CF3CH2; R2=C2H5; R3=H, 4-[Ethyl(2,2,2-trifluoroethyl)amino]-6-phenylpyrimidine hydrochloride] | 39 | 34 | 65 | –
4 | Clc1ccc(-c2cc(N3CCCC3)ncn2)cc1 [Ar=4-ClC6H4; R1,R2=--(CH2)4--; R3=H, 4-(1-Pyrrolidinyl)-6-(p-chlorophenyl)pyrimidine hydrochloride] | 21 | – | 99 | –
5 | CCN(CC)c1cc(-c2cccc(NC(=O)NC)c2)ncn1 | – | – | 23 | –
6 | CN(CCO)c1cc(-c2ccccc2)ncn1 [Ar=C6H5; R1=HO(CH2)2; R2=CH3; R3=H, 4-[Methyl(2-hydroxyethyl)amino]-6-phenylpyrimidine hydrochloride] | 99 | 28 | 99 | –
7 | O=[N+]([O-])c1cccc(-c2cc(N3CCCC3)ncn2)c1 [Ar=3-NO2C6H4; R1,R2=--(CH2)4--; R3=H] | 25 | – | 94 | –
8 | CCN(CC)c1cc(-c2cccc(NC(=O)OC)c2)ncn1 | 11 | – | 95 | –
9 | CCc1c(-c2ccco2)ncnc1N(CC)CC [Ar=2-furyl; R1=C2H5; R2=C2H5; R3=C2H5] | 30 | – | – | –
10 | CN(C)CCNc1cc(-c2ccccc2)ncn1 [Ar=C6H5; R1=(CH3)2N(CH2)2; R2=H; R3=H] | 30 | – | 99 | –
11 | CN1CCN(c2cc(-c3ccc(Cl)cc3)ncn2)CC1 [4-(4-Methyl-1-piperazinyl)-6-(p-chlorophenyl)pyrimidine hydrochloride] | 65 | 2 | 99 | –
12 | CCNc1cc(-c2ccc(OC)cc2)ncn1 [Ar=4-CH3OC6H4; R1=H; R2=C2H5; R3=H] | 64 | 24 | 92 | –
13 | c1ccc(-c2cc(N3CCOCC3)ncn2)cc1 [Ar=C6H5; R1,R2=--(CH2)2O(CH2)2--; R3=H, 4-(4-Morpholinyl)-6-phenylpyrimidine hydrochloride] | 75 | 37 | 94 | –
14 | CCc1c(-c2ccccc2)ncnc1N(CC)CC [Ar=C6H5; R1=C2H5; R2=C2H5; R3=C2H5, 4-Diethylamino-5-ethyl-6-phenylpyrimidine Hydrochloride] | – | 48 | – | –
15 | C=CCN(CC=C)c1cc(-c2ccc(OC)cc2)ncn1 | – | 55 | 90 | –
16 | CCN(CC)c1cc(-c2cccc(NC(=S)NC)c2)ncn1 | – | – | 4.9 | –
17 | CCCN(CCC)c1ncnc(-c2ccccc2)c1C [Ar=C6H5; R1=n-C3H7; R2=n-C3H7; R3=CH3] | – | 11 | – | –
18 | COc1ccc(-c2cc(NCC(C)C)ncn2)cc1 [Ar=4-CH3OC6H4; R1=H; R2=i-C4H9; R3=H] | 54 | 24 | 76 | –

Row | SMILES | inhibition at 60 µM [1] [%] | inhibition at 6 µM [1] [%] | inhibition at 600 µM [1] [%] | other results
19 | CCCN(CCC)c1cc(-c2cccs2)ncn1 [Ar=2-thienyl; R1=n-C3H7; R2=n-C3H7; R3=H] | 60 | 66 | 60 | –
20 | FC(F)(F)CNc1cc(-c2ccc(Cl)cc2)ncn1 [Ar=4-ClC6H4; R1=CF3CH2; R2=H; R3=H, 4-(2,2,2-Trifluoroethylamino)-6-(p-chlorophenyl)pyrimidine hydrochloride] | 18 | – | 86 | –
21 | CCCN(CCC)c1cc(-c2ccc(OC)cc2)ncn1 | 77 | 64 | 91 | –
22 | CN(Cc1cccnc1)c1cc(-c2ccccc2)ncn1 [Ar=C6H5; R1=3-picolyl; R2=CH3; R3=H, 4-[Methyl(3-pyridylmethyl)amino]-6-phenylpyrimidine dihydrochloride] | 17 | – | 99 | –
23 | CCCN(CCC)c1cc(-c2cccc(N)c2)ncn1 [Ar=3-NH2C6H4; R1=n-C3H7; R2=n-C3H7; R3=H] | 97 | 32 | 95 | –
24 | CCc1c(-c2ccc(OC)cc2)ncnc1N(CC)CC [Ar=4-CH3OC6H4; R1=C2H5; R2=C2H5; R3=C2H5] | – | 42 | – | –
25 | CCCCN(CCCC)c1cc(-c2ccccc2)ncn1 [Ar=C6H5; R1=n-C4H9; R2=n-C4H9; R3=H] | 56 | 35 | – | –
26 | c1ccc(-c2cc(N3CCCC3)ncn2)cc1 [Ar=C6H5; R1,R2=--(CH2)4--; R3=H, 4-(1-Pyrrolidinyl)-6-phenylpyrimidine hydrochloride] | 70 | 6 | 98 | –
27 | Cl.FC(F)(F)CNc1cc(-c2ccccc2)ncn1 [Ar=C6H5; R1=CF3CH2; R2=H; R3=H, 4-(2,2,2-Trifluoroethylamino)-6-phenylpyrimidine hydrochloride] | 83 | 32 | – | Duration ([2]; 10 mg./kg. I.V.): 3 h; Inhibition to Collagen, High ([2]; 10 mg./kg. I.V.): Complete (complete (95-100%)); Duration ([2]; 25 mg./kg. P.O.): 3 h; Inhibition to Collagen, High ([2]; 25 mg./kg. P.O.): Partial (partial (15-95%)); Duration ([2]; 35 mg./kg. P.O.): 4 h; Inhibition to Collagen, High ([2]; 35 mg./kg. P.O.): Complete (complete (95-100%)); Inhibition to Collagen, Low ([2]; 35 mg./kg. P.O.): Complete (complete (95-100%))
28 | CCN(CCO)c1cc(-c2ccc(Cl)cc2)ncn1 [Ar=4-ClC6H4; R1=C2H5; R2=HO(CH2)2; R3=H] | 57 | 18 | – | –
29 | COc1ccc(-c2cc(N(C)C)ncn2)cc1 [Ar=4-CH3OC6H4; R1=CH3; R2=CH3; R3=H] | 88 | 48 | 89 | –
30 | CCNc1cc(-c2ccccc2)ncn1 [Ar=C6H5; R1=C2H5; R2=H; R3=H, 4-ethylamino-6-phenylpyrimidine] | 91 | 99 | 99 | –
31 | CC(C)CNc1cc(-c2ccccc2)ncn1 [Ar=C6H5; R1=i-C4H9; R2=H; R3=H] | 82 | 17 | – | –
32 | CCN(CCO)c1cc(-c2ccccc2)ncn1.Cl [Ar=C6H5; R1=HO(CH2)2; R2=C2H5; R3=H, 4-[Ethyl(2-hydroxyethyl)amino]-6-phenylpyrimidine hydrochloride] | 97 | 35 | 99 | Duration ([2]; 10 mg./kg. I.V.): 3 h; Inhibition to Collagen, High ([2]; 10 mg./kg. I.V.): Complete (complete (95-100%)); Inhibition to Collagen, Low ([2]; 10 mg./kg. I.V.): Complete (complete (95-100%)); Duration ([2]; 25 mg./kg. P.O.): 2 h; Inhibition to Collagen, High ([2]; 25 mg./kg. P.O.): Complete (complete (95-100%)); Inhibition to Collagen, Low ([2]; 25 mg./kg. P.O.): Complete (complete (95-100%))
33 | c1ccc(-c2cc(NCc3cccnc3)ncn2)cc1 [Ar=C6H5; R1=3-picolyl; R2=H; R3=H, 4-(3-Pyridylmethylamino)-6-phenylpyrimidine dihydrochloride] | 31 | 12 | 98 | –
34 | COc1ccc(-c2cc(N3CCCC3)ncn2)cc1 [Ar=4-CH3OC6H4; R1,R2=--(CH2)4--; R3=H] | 92 | 39 | 92 | –
35 | Nc1cccc(-c2cc(N3CCCC3)ncn2)c1 [Ar=3-NH2C6H4; R1,R2=--(CH2)4--; R3=H] | – | – | 11 | –
